Source: US9540397B2, “BACE1 inhibitors” (Hoffmann-La Roche Inc., priority 2014, dated 2017)

Molecular target: T1, BACE1 (Homo sapiens, UniProt P56817)
T1 construct: endogenous in cells; host or cells: HEK293 APP cells
Assay: Cellular Aβ-lowering assay (Abeta 40 AlphaLISA, HEK293 APP cells)
Assay type: cell-based
Settings: 18-20 hrs incubation, Aβ40 in culture supernatant, read-out: BACE1 cell act. Aβ40 IC50
Procedure: Cellular Aβ-lowering assay:
The Abeta 40 AlphaLISA Assay can be used. The HEK293 APP cells were seeded in 96 well Microtiter plates in cell culture medium (Iscove's, plus 10% (v/v) fetal bovine serum, penicillin/streptomycin) to about 80% confluency and the compounds were added at a 3× concentration in ⅓ volume of culture medium (final DMSO concentration was kept at 1% v/v). After 18-20 hrs incubation at 37° C. and 5% CO2 in a humidified incubator, the culture supernatants were harvested for the determination of AP 40 concentrations using Perkin-Elmer Human Amyloid beta 1-40 (high specificity) Kit (Cat#AL275C).
In a Perkin-Elmer White Optiplate-384 (Cat#6007290), 2 ul culture supernatants were combined with 2 μl of a 10× AlphaLISA Anti-hAβ Acceptor beads+Biotinylated Antibody Anti-Aβ 1-40 Mix ([…]/5 nM). After 1 hour room temperature incubation, 16 μl of a 1.25× preparation of Streptavidin (SA) Donor beads (25 μg/mL) were added and incubated for 30 minutes in the Dark. Light Emission at 615 nm was then recorded using EnVision-Alpha Reader. Levels of Aβ 40 in the culture supernatants were calculated as percentage of maximum signal (cells treated with 1% DMSO without inhibitor). The IC50 values were calculated using the Excel XLfit software.

T1 sequence (P56817 46-501): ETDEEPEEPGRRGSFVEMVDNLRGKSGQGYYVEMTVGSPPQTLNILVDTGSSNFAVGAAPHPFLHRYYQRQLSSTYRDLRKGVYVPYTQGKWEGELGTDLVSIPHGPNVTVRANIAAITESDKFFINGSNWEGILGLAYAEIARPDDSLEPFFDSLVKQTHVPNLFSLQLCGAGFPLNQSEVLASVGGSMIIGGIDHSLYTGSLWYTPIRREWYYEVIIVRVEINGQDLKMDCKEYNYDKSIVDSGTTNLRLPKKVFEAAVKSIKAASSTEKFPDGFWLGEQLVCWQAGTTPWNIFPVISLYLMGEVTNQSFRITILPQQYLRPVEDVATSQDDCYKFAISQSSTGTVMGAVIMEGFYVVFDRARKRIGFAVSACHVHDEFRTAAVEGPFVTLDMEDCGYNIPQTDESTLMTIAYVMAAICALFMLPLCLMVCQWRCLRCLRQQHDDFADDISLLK

SMILES	IC50 [nM]
CC1(C)C(N)=N[C@](C)(c2nc(NC(=O)c3ccc(OCC(F)(F)C(F)F)cn3)ccc2F)[C@H]2CCN=[S@]21=O [Example 15BA, N-(6-((3aR,4R,8S)-6-amino-4,7,7-trimethyl-8-oxido-3,3a,4,7-tetrahydro-2H-isothiazolo[1,5-a][1,4]thiazin-4-yl)-5-fluoropyridin-2-yl)-5-(2,2,3,3-tetrafluoropropoxy)picolinamide]	557
CC1(C)C(N)=N[C@](C)(c2nc(NC(=O)c3ccc(C#N)cc3)ccc2F)[C@@H]2CCN=[S@@]21=O [Example 30AB, N-(6-((3aS,4R,8R)-6-amino-4,7,7-trimethyl-8-oxido-3,3a,4,7-tetrahydro-2H-isothiazolo[1,5-a][1,4]thiazin-4-yl)-5-fluoropyridin-2-yl)-4-cyanobenzamide]	14
CC1(C)C(N)=N[C@](C)(c2nc(NC(=O)c3cnc(OCC(F)F)cn3)ccc2F)[C@H]2CC(F)(F)CN=[S@@]21=O [Example 46AA, N-(6-((4aR,5R,9R)-7-amino-3,3-difluoro-5,8,8-trimethyl-9-oxido-2,3,4,4a,5,8-hexahydro-[1,4]thiazino[2,1-f][1,2]thiazin-5-yl)-5-fluoropyridin-2-yl)-5-(2,2-difluoroethoxy)pyrazine-2-carboxamide]	144
CC1(C)C(N)=N[C@](C)(c2nc(NC(=O)c3ccc(C#N)cc3Cl)ccc2F)[C@@H]2CCN=[S@@]21=O [Example 31AB, N-(6-((3aS,4R,8R)-6-amino-4,7,7-trimethyl-8-oxido-3,3a,4,7-tetrahydro-2H-isothiazolo[1,5-a][1,4]thiazin-4-yl)-5-fluoropyridin-2-yl)-2-chloro-4-cyanobenzamide]	34
CC1(C)C(N)=N[C@](C)(c2nc(NC(=O)c3ccc(OCF)cn3)ccc2F)[C@H]2CCN=[S@]21=O [Example 13BA, N-(6-((3aR,4R,8S)-6-amino-4,7,7-trimethyl-8-oxido-3,3a,4,7-tetrahydro-2H-isothiazolo[1,5-a][1,4]thiazin-4-yl)-5-fluoropyridin-2-yl)-5-(fluoromethoxy)picolinamide]	382
COc1cnc(C(=O)Nc2ccc(F)c([C@@]3(C)N=C(N)C(C)(C)[S@@]4(=O)=NCC(F)(F)C[C@H]34)n2)cn1 [Example 38AA, N-(6-((4aR,5R,9R)-7-amino-3,3-difluoro-5,8,8-trimethyl-9-oxido-2,3,4,4a,5,8-hexahydro-[1,4]thiazino[2,1-f][1,2]thiazin-5-yl)-5-fluoropyridin-2-yl)-5-methoxypyrazine-2-carboxamide]	295
Cc1cc(C#N)cnc1C(=O)Nc1ccc(F)c([C@@]2(C)N=C(N)C(C)(C)[S@@]3(=O)=NCC4(CC4)C[C@@H]23)n1 [Example 48AB, N-(6-((4aS,5R,9R)-7-amino-5,8,8-trimethyl-9-oxido-4,4a,5,8-tetrahydro-2H-spiro[[1,4]-thiazino[2,1-f][1,2]thiazine-3,1′-cyclopropan]-5-yl)-5-fluoropyridin-2-yl)-5-cyano-3-methylpicolinamide]	13
Cc1cc(F)cnc1C(=O)Nc1ccc(F)c([C@@]2(C)N=C(N)C(C)(C)[S@]3(=O)=NCC[C@H]23)n1 [Example 10BA, N-(6-((3aR,4R,8S)-6-amino-4,7,7-trimethyl-8-oxido-3,3a,4,7-tetrahydro-2H-isothiazolo[1,5-a][1,4]thiazin-4-yl)-5-fluoropyridin-2-yl)-5-fluoro-3-methylpicolinamide]	420
CC1(C)C(N)=N[C@](C)(c2nc(NC(=O)c3ncc(F)cc3Cl)ccc2F)[C@H]2CCN=[S@]21=O [Example 11BA, N-(6-((3aR,4R,8S)-6-amino-4,7,7-trimethyl-8-oxido-3,3a,4,7-tetrahydro-2H-isothiazolo[1,5-a][1,4]thiazin-4-yl)-5-fluoropyridin-2-yl)-3-chloro-5-fluoropicolinamide]	117
CC1(C)C(N)=N[C@](C)(c2nc(NC(=O)c3ccc(OC(F)F)cn3)ccc2F)[C@H]2CCN=[S@]21=O [Example 14BA, N-(6-((3aR,4R,8S)-6-amino-4,7,7-trimethyl-8-oxido-3,3a,4,7-tetrahydro-2H-isothiazolo[1,5-a][1,4]thiazin-4-yl)-5-fluoropyridin-2-yl)-5-(difluoromethoxy)picolinamide]	52.6
COc1cnc(C(=O)Nc2ccc(F)c([C@@]3(C)N=C(N)C(C)(C)[S@]4(=O)=NCC[C@H]34)n2)cn1 [Example 16BA, N-(6-((3aR,4R,8S)-6-amino-4,7,7-trimethyl-8-oxido-3,3a,4,7-tetrahydro-2H-isothiazolo[1,5-a][1,4]thiazin-4-yl)-5-fluoropyridin-2-yl)-5-methoxypyrazine-2-carboxamide]	115

Second part, the compound after the results:

IC50 [nM]	SMILES
152	CC1(C)C(N)=N[C@](C)(c2nc(NC(=O)c3cnc(OC(F)F)cn3)ccc2F)[C@H]2CCN=[S@]21=O [Example 26BA, N-(6-((3aR,4R,8S)-6-amino-4,7,7-trimethyl-8-oxido-3,3a,4,7-tetrahydro-2H-isothiazolo[1,5-a][1,4]thiazin-4-yl)-5-fluoropyridin-2-yl)-5-(difluoromethoxy)pyrazine-2-carboxamide]
> 40	CC1(C)C(N)=N[C@](C)(c2nc(NC(=O)c3ccc(C(=O)O)cn3)ccc2F)[C@H]2CC(F)(F)CN=[S@@]21=O [Example 44AA, 6-((6-((4aR,5R,9R)-7-amino-3,3-difluoro-5,8,8-trimethyl-9-oxido-2,3,4,4a,5,8-hexahydro-[1,4]thiazino[2,1-f][1,2]thiazin-5-yl)-5-fluoropyridin-2-yl)carbamoyl)nicotinic acid]
24.2	Cc1cc(Cl)cnc1C(=O)Nc1ccc(F)c([C@@]2(C)N=C(N)C(C)(C)[S@]3(=O)=NCC[C@H]23)n1 [Example 12BA, N-(6-((3aR,4R,8S)-6-amino-4,7,7-trimethyl-8-oxido-3,3a,4,7-tetrahydro-2H-isothiazolo[1,5-a][1,4]thiazin-4-yl)-5-fluoropyridin-2-yl)-5-chloro-3-methylpicolinamide]
118	CC1(C)C(N)=N[C@](C)(c2nc(NC(=O)c3ccc(F)cn3)ccc2F)[C@H]2CCN=[S@]21=O [Example 27BA, N-(6-((3aR,4R,8S)-6-amino-4,7,7-trimethyl-8-oxido-3,3a,4,7-tetrahydro-2H-isothiazolo[1,5-a][1,4]thiazin-4-yl)-5-fluoropyridin-2-yl)-5-fluoropicolinamide]
114	Cc1cc(F)cnc1C(=O)Nc1ccc(F)c([C@@]2(C)N=C(N)C(C)(C)[S@@]3(=O)=NCC(F)(F)C[C@H]23)n1 [Example 39AA, N-(6-((4aR,5R,9R)-7-amino-3,3-difluoro-5,8,8-trimethyl-9-oxido-2,3,4,4a,5,8-hexahydro-[1,4]thiazino[2,1-f][1,2]thiazin-5-yl)-5-fluoropyridin-2-yl)-5-fluoro-3-methylpicolinamide]
147	CC#Cc1ccc(C(=O)Nc2ccc(F)c([C@@]3(C)N=C(N)C(C)(C)[S@@]4(=O)=NCC(F)(F)C[C@H]34)n2)nc1 [Example 47AA, N-(6-((4aR,5R,9R)-7-amino-3,3-difluoro-5,8,8-trimethyl-9-oxido-2,3,4,4a,5,8-hexahydro-[1,4]thiazino[2,1-f][1,2]thiazin-5-yl)-5-fluoropyridin-2-yl)-5-(prop-1-yn-1-yl)picolinamide]
< 10	CC1(C)C(N)=N[C@](C)(c2nc(NC(=O)c3nn(C(F)F)cc3Cl)ccc2F)[C@@H]2CCN=[S@@]21=O [Example 51AB, N-(6-((3aS,4R,8R)-6-amino-4,7,7-trimethyl-8-oxido-3,3a,4,7-tetrahydro-2H-isothiazolo[1,5-a][1,4]thiazin-4-yl)-5-fluoropyridin-2-yl)-4-chloro-1-(difluoromethyl)-1H-pyrazole-3-carboxamide]
